Results on one compound are retold here after ChEMBL document CHEMBL3525933 (Drug Metab Dispos, 2012).

Each structure is given as a SMILES string.

Data set [1] concerns Plasma. Briefly: Drug recovery in Wistar rat plasma at 2000 ng/ml by HPLC-DAD analysis. In kind it is ADME, cell-free.
Data set [2] has as its system Plasma. Briefly: Drug metabolism in Wistar rat plasma assessed as retention time by HPLC-DAD analysis. In kind it is ADME, cell-free.

As for `O=c1c(-c2ccc(O)cc2)coc2cc(O[C@@H]3O[C@H](CO)[C@@H](O)[C@H](O)[C@H]3O)ccc12` [DAIDZIN], in data set [1], the Drug recovery is given as 85.1%. The Retention_time in data set [2] was 9.5 min.
